The results in this text go back to paper PMC4847484, “Chemical generation and modification of peptides containing multiple dehydroalanines” (Chemical Communications (Cambridge, England), 2015).

Read-outs that look alike come from different tables or passages of the source. Positions of bridges follow the written chain, without caps; N, C: chain ends. No end group written: not given here.

The conditions of series [1]: the molecule shown is the open-chain precursor, crosslinker bond, 31-membered ring.
A further series addresses human plasma kallikrein (Homo sapiens, UniProt P03952). Put plainly: Kallikrein inhibition assay (residual HPK activity, fluorogenic substrate Z-Phe-Arg-AMC). Type of series: biochemical.
[2] abbreviates: TBMB/NH4HCO3, aq NH4HCO3 (pH 8)/MeCN, 1.67 mM.

Chain of human plasma kallikrein (P03952 391-638 limits assumed): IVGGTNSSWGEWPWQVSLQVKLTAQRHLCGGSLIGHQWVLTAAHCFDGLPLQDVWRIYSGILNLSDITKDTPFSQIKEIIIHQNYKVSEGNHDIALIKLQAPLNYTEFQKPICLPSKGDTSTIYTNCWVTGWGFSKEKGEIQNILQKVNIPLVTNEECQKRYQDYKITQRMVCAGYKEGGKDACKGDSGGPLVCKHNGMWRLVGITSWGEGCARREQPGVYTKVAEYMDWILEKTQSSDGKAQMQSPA
Chain of human plasma kallikrein (P03952 20-390 partner limits assumed): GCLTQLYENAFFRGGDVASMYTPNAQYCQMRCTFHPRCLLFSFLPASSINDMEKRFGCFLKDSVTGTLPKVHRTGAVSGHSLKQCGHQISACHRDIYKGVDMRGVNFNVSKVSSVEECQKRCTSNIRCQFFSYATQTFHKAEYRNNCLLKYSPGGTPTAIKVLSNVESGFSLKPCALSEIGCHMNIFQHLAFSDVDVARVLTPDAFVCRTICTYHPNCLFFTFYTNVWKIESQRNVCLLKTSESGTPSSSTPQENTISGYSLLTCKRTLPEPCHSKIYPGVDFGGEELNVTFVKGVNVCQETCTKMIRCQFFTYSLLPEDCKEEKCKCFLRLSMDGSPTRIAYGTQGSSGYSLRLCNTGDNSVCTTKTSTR

For the substance “H-Ala-dCys-Ser-Asp-Arg-Phe-Arg-Asn-dCys-Pro-Ala-Asp-Glu-Ala-Leu-Cys-Gly-NH2?”, the ring closure, yield after HPLC in series [1] (setting [2]) is 26%.
In series [1] (setting [2]), “H-Ala-dCys-Ser-Asp-Arg-Phe-Arg-Asn-Cys-Pro-Ala-Asp-Glu-Ala-Leu-Cys-Gly-NH2?” returned a ring closure, yield after HPLC of 26%.
Same read-out and setting: the result for “H-Ala-Cys-Ser-Asp-Arg-Phe-Arg-Asn-dCys-Pro-Ala-Asp-Glu-Ala-Leu-dCys-Gly-NH2?” reads 24%; that for “H-Ala-dCys-Ser-Asp-Arg-Phe-Arg-Asn-dCys-Pro-Ala-Asp-Glu-Ala-Leu-dCys-Gly-NH2?”, 26%; that for “H-Ala-Cys-Ser-Asp-Arg-Phe-Arg-Asn-Cys-Pro-Ala-Asp-Glu-Ala-Leu-dCys-Gly-NH2?”, 10%.
In the case of “H-Ala-Dha-Ser-Asp-Arg-Phe-Arg-Asn-Dha-Pro-Ala-Asp-Glu-Ala-Leu-Dha-Gly-NH2”, the ring closure, yield after HPLC in series [1] (1,3,5-tris(mercaptomethyl)benzene/K2CO3, H2O/DMF 1:1, 1.15 mM, 37.0 °C) amounted to 43%.
In series [1] (setting [2]), “H-Ala-Cys-Ser-Asp-Arg-Phe-Arg-Asn-Cys-Pro-Ala-Asp-Glu-Ala-Leu-Cys-Gly-NH2?” displayed a ring closure, yield after HPLC of 29%.
The same measure, in the same setting: for “H-Ala-Cys-Ser-Asp-Arg-Phe-Arg-Asn-dCys-Pro-Ala-Asp-Glu-Ala-Leu-Cys-Gly-NH2?” the value was 16%; for “H-Ala-dCys-Ser-Asp-Arg-Phe-Arg-Asn-Cys-Pro-Ala-Asp-Glu-Ala-Leu-dCys-Gly-NH2?”, 16%.
As to “13: stereochemically scrambled bicyclic peptide mixture from cyclisation of 12 with trithiol 2 (ACSDRFRNCPADEALCG; linker 2-9-16 via 1,3,5‑tris(mercaptomethyl)benzene; also: mixture of 8 stereoisomers (D/L at Cys2, Cys9, Cys16)) [compound 13]”, the IC50 – broadly, the concentration needed to halve the response being measured – came to 238 ± 21 nM in the series with human plasma kallikrein (crude reaction mixture of the conversion of 12 to 13, before purification, same kallikrein inhibition assay) and 144 ± 31 nM in the series with human plasma kallikrein (purified peptide, HPK incubated 30 min at room temperature with bicyclic peptide, substrate Z-Phe-Arg-AMC, Tris 10 mM pH 7.4, NaCl, MgCl2, CaCl2, 0.1% BSA, 0.01% Triton X-100, 5% DMSO, ex 355 / em 460 nm, logistic fit).
